Experimental data: article PMC10706804, “Synthesis and Characterization of a New Class of Chromene-Azo Sulfonamide Hybrids as Promising Anticancer Candidates with the Exploration of Their EGFR, hCAII, and MMP-2 Inhibitors Based on Molecular Docking Assays” (International Journal of Molecular Sciences, 2023)
Where “and” joins values, the source holds several entries; their conditions need not be identical. Equal entries are not always repeated.

system: human breast adenocarcinoma (MCF-7); test: MTT cytotoxicity, MCF-7; format: cell-based; settings: Homo sapiens, MCF7, MCF-7 cells
Source text: (§1) Three human tumorous cell lines—human colon carcinoma (HCT-116), human liver carcinoma (HepG-2), and human breast adenocarcinoma (MCF-7)—were subjected to cytotoxic behavior, employing the MTT analysis. Moreover, a normotoxicity assessment was employed against normal Vero cell line (African Green Monkey Kidney cells) for selected active compounds to determine their therapeutic safety. […] The inhibitory performance of derivatives 1a–e, 2a–e, 7a–g, 8, and 11a–e, and its derived relation to the cell proliferation of these three cancers, are described in Table 1 and Figure 2. […] Characteristically, the inhibitory activity was enhanced via incorporating the azo moieties in compounds 2a–b.
(§2) The cytotoxic activity was appraised using the 3-(4,5-dimethylthiazol-2-yl)-2,5-diphenyl-tetrazolium bromide (MTT) colorimetric assay as reported previously.

SMILES	IC50
CCOC(=O)C1=C(N/C(=C(/C#N)C(=O)OCC)c2ccc(C)cc2)Oc2cc(O)c(/N=N/c3ccc(S(N)(=O)=O)cc3)cc2C1c1ccc(C)cc1 (stereo not drawn) [11a]	20.8 ± 1.38 µM
CCOC(=O)C1=C(N/C(=C(/C#N)C(=O)OCC)c2ccc(C)cc2)Oc2cc(O)c(/N=N/c3ccc(S(=O)(=O)NC(C)=O)cc3)cc2C1c1ccc(C)cc1 (stereo not drawn) [11b]	66 ± 3.91 µM
CCOC(=O)C1=C(N/C(=C(/C#N)C(=O)OCC)c2ccc(C)cc2)Oc2cc(O)c(/N=N/c3ccc(S(=O)(=O)NC(=N)N)cc3)cc2C1c1ccc(C)cc1 (stereo not drawn) [11c]	105 ± 5.78 µM
CCOC(=O)C1=C(N/C(=C(/C#N)C(=O)OCC)c2ccc(C)cc2)Oc2cc(O)c(/N=N/c3ccc(S(=O)(=O)Nc4nccs4)cc3)cc2C1c1ccc(C)cc1 (stereo not drawn) [11d]	9.13 ± 0.93 µM
CCOC(=O)C1=C(N/C(=C(/C#N)C(=O)OCC)c2ccc(C)cc2)Oc2cc(O)c(/N=N/c3ccc(S(=O)(=O)Nc4cc(C)no4)cc3)cc2C1c1ccc(C)cc1 (stereo not drawn) [11e]	23.6 ± 2.05 µM
COc1cccc2c1C(=O)c1c(O)c3c(c(O)c1C2=O)C[C@@](O)(C(=O)CO)C[C@@H]3O[C@H]1C[C@H](N)[C@H](O)[C@H](C)O1 [Doxorubicin, reference compound]	0.64 ± 0.03 µM

same assay, conditions: MCF-7 cells

SMILES	IC50
N.N.[Cl][Pt][Cl] [Cisplatin, reference compound]	14.66 ± 0.03 µM

system: normal Vero cell line (Vero CCL-81); test: Normotoxicity assessment, normal Vero cell line; format: cell-based, African Green Monkey; settings: Chlorocebus sabaeus; normal Vero CCL-81 cells, cytotoxicity
Source text: as §1, §2

SMILES	IC50
CCOC(=O)C1=C(N/C(=C(/C#N)C(=O)OCC)c2ccc(C)cc2)Oc2cc(O)c(/N=N/c3ccc(S(N)(=O)=O)cc3)cc2C1c1ccc(C)cc1 (stereo not drawn) [11a]	139 ± 5.26 µM
CCOC(=O)C1=C(N/C(=C(/C#N)C(=O)OCC)c2ccc(C)cc2)Oc2cc(O)c(/N=N/c3ccc(S(=O)(=O)NC(=N)N)cc3)cc2C1c1ccc(C)cc1 (stereo not drawn) [11c]	328 ± 8.26 µM
CCOC(=O)C1=C(N/C(=C(/C#N)C(=O)OCC)c2ccc(C)cc2)Oc2cc(O)c(/N=N/c3ccc(S(=O)(=O)Nc4nccs4)cc3)cc2C1c1ccc(C)cc1 (stereo not drawn) [11d]	278 ± 6.45 µM
CCOC(=O)C1=C(N/C(=C(/C#N)C(=O)OCC)c2ccc(C)cc2)Oc2cc(O)c(/N=N/c3ccc(S(=O)(=O)Nc4cc(C)no4)cc3)cc2C1c1ccc(C)cc1 (stereo not drawn) [11e]	162 ± 6.48 µM

target: T1, cytosolic hCA II (Bos taurus, UniProt P00921); test: CA-II inhibition assay (esterase activity, 4-NPA); format: biochemical, bovine; settings: reduction in esterase activity, 4-NPA substrate; read-out: IC50 against hCA II
T1 construct: purchased Sigma–Aldrich C2624
Procedure: The CA-II inhibition assay for the analyzed molecules was performed based on the measurement of the reduction in esterase activity on the substrate p-nitrophenyl acetate (4-NPA). Briefly, the total mixture volume was 200 µL in a well containing 140 µL (20 mM HEPES) Tris buffer (pH 7.4), 20 µL of the enzyme (from bovine, Sigma–Aldrich, C2624, St. Louis, MO, USA), and 20 µL (0.5 mg/mL in DMSO) of the investigated derivatives, which were mixed and incubated at 25 °C for 15 min. […] The results, attained after the reactions were completed in triplicate, were quantified by the equation given below. The percent inhibition for each sample was calculated as Inhibition (%) = [(C − T)/C] × 100, where C (i.e., control) = total enzyme activity without inhibitor and T (i.e., test sample) = activity in the presence of test compound.

T1 sequence (P00921 whole entry): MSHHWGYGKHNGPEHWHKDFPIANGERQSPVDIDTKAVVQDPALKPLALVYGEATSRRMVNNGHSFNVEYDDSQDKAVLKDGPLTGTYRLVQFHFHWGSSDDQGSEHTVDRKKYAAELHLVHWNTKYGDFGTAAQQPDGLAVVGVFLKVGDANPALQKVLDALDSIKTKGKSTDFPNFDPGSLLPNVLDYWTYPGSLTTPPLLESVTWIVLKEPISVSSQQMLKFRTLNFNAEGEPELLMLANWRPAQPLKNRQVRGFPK

SMILES	IC50
CCOC(=O)C1=C(N/C(=C(/C#N)C(=O)OCC)c2ccc(C)cc2)Oc2cc(O)c(/N=N/c3ccc(S(=O)(=O)Nc4nccs4)cc3)cc2C1c1ccc(C)cc1 (stereo not drawn) [11d]	267 µM

system: human liver carcinoma (HepG-2); test: MTT cytotoxicity, HepG-2; format: cell-based; settings: HepG-2 cells
Source text: as §1, §2

SMILES	IC50
N.N.[Cl][Pt][Cl] [Cisplatin, reference compound]	10.9 ± 0.19 µM

same assay, conditions: Homo sapiens, HepG2, HepG-2 cells

SMILES	IC50
CCOC(=O)C1=C(N/C(=C(/C#N)C(=O)OCC)c2ccc(C)cc2)Oc2cc(O)c(/N=N/c3ccc(S(N)(=O)=O)cc3)cc2C1c1ccc(C)cc1 (stereo not drawn) [11a]	32.2 ± 1.79 µM
CCOC(=O)C1=C(N/C(=C(/C#N)C(=O)OCC)c2ccc(C)cc2)Oc2cc(O)c(/N=N/c3ccc(S(=O)(=O)NC(C)=O)cc3)cc2C1c1ccc(C)cc1 (stereo not drawn) [11b]	147 ± 6.41 µM
CCOC(=O)C1=C(N/C(=C(/C#N)C(=O)OCC)c2ccc(C)cc2)Oc2cc(O)c(/N=N/c3ccc(S(=O)(=O)NC(=N)N)cc3)cc2C1c1ccc(C)cc1 (stereo not drawn) [11c]	73.8 ± 2.89 µM
CCOC(=O)C1=C(N/C(=C(/C#N)C(=O)OCC)c2ccc(C)cc2)Oc2cc(O)c(/N=N/c3ccc(S(=O)(=O)Nc4nccs4)cc3)cc2C1c1ccc(C)cc1 (stereo not drawn) [11d]	4.71 ± 0.47 µM
CCOC(=O)C1=C(N/C(=C(/C#N)C(=O)OCC)c2ccc(C)cc2)Oc2cc(O)c(/N=N/c3ccc(S(=O)(=O)Nc4cc(C)no4)cc3)cc2C1c1ccc(C)cc1 (stereo not drawn) [11e]	17.3 ± 1.06 µM
COc1cccc2c1C(=O)c1c(O)c3c(c(O)c1C2=O)C[C@@](O)(C(=O)CO)C[C@@H]3O[C@H]1C[C@H](N)[C@H](O)[C@H](C)O1 [Doxorubicin, reference compound]	0.66 ± 0.02 µM

system: human colon carcinoma (HCT-116); test: MTT cytotoxicity, HCT-116; format: cell-based; settings: HCT-116 cells
Source text: as §1, §2

SMILES	IC50
N.N.[Cl][Pt][Cl] [Cisplatin, reference compound]	8.36 ± 0.07 µM

same assay, conditions: Homo sapiens, HCT-116 cells

SMILES	IC50
CCOC(=O)C1=C(N/C(=C(/C#N)C(=O)OCC)c2ccc(C)cc2)Oc2cc(O)c(/N=N/c3ccc(S(N)(=O)=O)cc3)cc2C1c1ccc(C)cc1 (stereo not drawn) [11a]	12.2 ± 0.96 µM
CCOC(=O)C1=C(N/C(=C(/C#N)C(=O)OCC)c2ccc(C)cc2)Oc2cc(O)c(/N=N/c3ccc(S(=O)(=O)NC(C)=O)cc3)cc2C1c1ccc(C)cc1 (stereo not drawn) [11b]	39.3 ± 2.63 µM
CCOC(=O)C1=C(N/C(=C(/C#N)C(=O)OCC)c2ccc(C)cc2)Oc2cc(O)c(/N=N/c3ccc(S(=O)(=O)NC(=N)N)cc3)cc2C1c1ccc(C)cc1 (stereo not drawn) [11c]	79.5 ± 3.65 µM
CCOC(=O)C1=C(N/C(=C(/C#N)C(=O)OCC)c2ccc(C)cc2)Oc2cc(O)c(/N=N/c3ccc(S(=O)(=O)Nc4nccs4)cc3)cc2C1c1ccc(C)cc1 (stereo not drawn) [11d]	6.32 ± 0.68 µM
CCOC(=O)C1=C(N/C(=C(/C#N)C(=O)OCC)c2ccc(C)cc2)Oc2cc(O)c(/N=N/c3ccc(S(=O)(=O)Nc4cc(C)no4)cc3)cc2C1c1ccc(C)cc1 (stereo not drawn) [11e]	18.4 ± 1.19 µM
COc1cccc2c1C(=O)c1c(O)c3c(c(O)c1C2=O)C[C@@](O)(C(=O)CO)C[C@@H]3O[C@H]1C[C@H](N)[C@H](O)[C@H](C)O1 [Doxorubicin, reference compound]	0.9 ± 0.07 µM

target: T2, MMP-2 (Homo sapiens, UniProt P08253); test: MMP-2 Inhibitor Screening Assay Kit (colorimetric); settings: IC50 on MMP-2, MMP-2 inhibitor screening kit
T2 sequence (P08253 110-660): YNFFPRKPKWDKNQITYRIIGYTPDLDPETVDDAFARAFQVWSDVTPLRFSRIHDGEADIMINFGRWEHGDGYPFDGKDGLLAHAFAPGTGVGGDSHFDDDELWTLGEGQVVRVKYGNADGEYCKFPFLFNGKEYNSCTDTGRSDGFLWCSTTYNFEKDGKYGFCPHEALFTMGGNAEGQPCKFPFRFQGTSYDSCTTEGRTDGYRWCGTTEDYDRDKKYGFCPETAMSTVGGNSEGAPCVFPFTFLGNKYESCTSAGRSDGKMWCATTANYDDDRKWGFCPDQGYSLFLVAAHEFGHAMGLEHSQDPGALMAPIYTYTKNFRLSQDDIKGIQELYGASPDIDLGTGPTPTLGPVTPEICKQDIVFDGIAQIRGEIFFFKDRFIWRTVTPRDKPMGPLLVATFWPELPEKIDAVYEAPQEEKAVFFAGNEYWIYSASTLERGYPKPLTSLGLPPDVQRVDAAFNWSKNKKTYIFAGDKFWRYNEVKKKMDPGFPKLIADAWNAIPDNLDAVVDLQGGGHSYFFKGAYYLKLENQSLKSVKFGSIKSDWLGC

SMILES	IC50
CNC(=O)c1cc(Oc2ccc(NC(=O)Nc3ccc(Cl)c(C(F)(F)F)c3)cc2)ccn1 [Sorafenib, reference compound]	~12.3 µM and 12.3 µM
